Earlier results on 1 substance are cited in PMC3045272 (Acta Crystallographica Section D: Biological Crystallography, 2011).

In the data set the test system is Cn (calcineurin). More on the design: method as in Landrieu et al., 2010. Conditions: modification of the fourth residue; ref Landrieu et al., 2010.

On to Debio 025, for which the “binding of the compound–CypA complex to Cn” value is “prevents binding of the Debio 025–CypA complex to Cn”.
